Laboratory results reported in US11738072B2, “Tumor vaccine and uses thereof” (WestVac Biopharma Co., Ltd., priority 2017, dated 2023).

Experiments:
[1] = tested on: mouse sarcoma cell line S180; experiment: Subcutaneous S180 sarcoma model in mice; assay type: in vivo, KM mice; settings: 2.5 μg pMVA-1 and/or 25 μg DOTAP sc every 3 days x5; 21 days after inoculation
Method: KM mice aged 6-8 weeks were raised. The mouse sarcoma cell line S180 cultured to the logarithmic growth phase was prepared into a cell suspension, and mouse subcutaneous tumor was modeled by subcutaneous injection in the right axilla of each mouse. The number of cells injected into each mouse was 1×10^7, and the injection system was 200 μl for each mouse.
On the 5th day after inoculation of S180 sarcoma cells, when the tumor could be palpated, 40 tumor-bearing mice were randomly divided into 4 groups according to Table 12: i.e. negative control group (NS), DOTAP control group, pMVA-1 control group, and treatment group pMVA-1/DOTAP group. Then, the mice were subcutaneously administrated according to Table 12: 2.5 μg of plasmid pMVA-1 for each mouse in the pMVA-1 control group; 25 μg of DOTAP for each mouse in DOTAP control group; 2.5 μg of DNA and 25 μg of DOTAP for each mouse in the treatment group of the pMVA-1/DOTAP complex group; that is, the mass ratio of plasmid DNA to DOTAP was 1:10. After that, they were administrated every three days for a total of 5 times. The mice were killed and the tumor-free rate of the mice was counted 21 days after inoculation of the tumor.

[2] = tested on: A549 cells; experiment: A549 cell death test by PI-AnnexinV (fluorescence microscope); assay type: cell-based; settings: A549, 24 h; complex mass ratio 1:6
Method: A549 cells in the logarithmic growth phase were prepared into single cell suspension, inoculated into a 6-well plate as per approximately 1×10^5 cells per well. Then, 2 ml of medium was added to each well and cultured in a 5% CO2 incubator at 37° C. for 24-36 h.
a. 5 mg/ml of pMVA-1 plasmid vector solution was added to 100 μl of 1640 serum-free medium for preparing a pMVA-1 plasmid vector control group;
b. 1 mg/ml of DOTAP cationic lipid was dissolved in 100 μl of 1640 serum-free medium for preparing a DOTAP cationic lipid control group;
c. the pMVA-1/DOTAP complex with a mass ratio of 1:6 prepared in Example 5 was dissolved in 100 μl of 1640 serum-free medium for preparing a pMVA-1/DOTAP complex experimental group.
Some of the medium was pipetted from the 6-well plate in Step (1) until the medium in each well reached 900 μl. The pMVA-1/DOTAP complex (pMVA-DOTAP) (prepared in Step (2)) of the experimental group as well as the pMVA-1 plasmid vector (PMVA) and DOTAP cationic lipid (DOTAP) of the control group was added to A549 cells cultured in Step (1) respectively to make the total volume of 1 ml. At the same time, a blank control group containing only medium was made, and incubated in a 5% of CO2 incubator at 37° C. for 24 h. […]
The cells stained with PI and Annexin V in Step (4) were washed once with PBS and observed under a fluorescence microscope. […]

[3] = tested on: lysosomes of A549 cells; experiment: Lysosomal membrane permeability by FITC-Dextran cell localization; assay type: cell-based; settings: 3 h, confocal microscope; dispersed = increased LMP
Method: (1) Inoculation of A549 cells in plates: A549 cells in the logarithmic growth phase were prepared into a cell suspension, inoculated into a 6-well plate as per approximately 1×10^5 cells/well. Then, 2 ml of medium was added to each well, and cultured overnight in a 5% CO2 incubator at 37° C.
(2) FITC-Dextran (made by Sigma) with a final concentration of 1 mg/ml was added to the cell medium in Step (1), and incubated at 37° C. for 4 h in the dark.
(3) The cells in Step (2) were washed twice with sterile PBS, 1640 medium was added, thus allowing A549 cells to be treated with the medium (blank control group), pMVA-1 plasmid (control group PMVA), DOTAP cationic lipid (control group DOTAP) and pMVA-1/DOTAP complex (experimental group PMVA-DOTAP) respectively, and incubated at 37° C. for 3 h in the dark.
(4) The cells in Step (3) were washed twice with PBS, stabilized with 4% paraformaldehyde for 10 min, washed twice with PBS, sealed. Fluorecytes were observed under a confocal microscope and the images were saved.

[4] = tested on: bone marrow-derived dendritic cells (BMDC); experiment: FITC-Dextran uptake by BMDC, flow cytometry; assay type: cell-based, mouse; settings: BMDC stimulated 24 h by CT26 cells treated with sample
Method: a. Bone marrow cells were obtained from the femur and tibia of mouse, sieved and collected in a centrifuge tube, centrifuged at 280 g and at room temperature for 5 min, and the supernatant was discarded.
b. 10 ml of red cell lysate was added to the cells described in Step a, standing for 3 min at room temperature, centrifuged at 280 g and at room temperature for 5 min, and the supernatant was discarded.
c. The bone marrow cells described in Step b were washed twice with PRMI-1640 medium, centrifuged at 280 g and at room temperature for 10 min, live cell count was carried out, the cell concentration was adjusted to 1×10^6 cells/ml by RPMI-1640 complete medium.
d. In Step c, the recombinant mouse GM-CS with a final concentration of 10 ng/ml was added and 4 ml/well cell suspension was inoculated into a 6-well plate, and cultured in a 37° C., 5% CO2 incubator. When cell colonies grew on the bottom of the plate, the medium was pipetted, washed once with the medium, and 1640 complete medium containing 10 ng/ml of GM-CSF was added to each well.
e. […]
d. Test and analysis of fluorescence intensity of BMDC based on flow cytometry.

CCCCCCCC/C=C\CCCCCCCC(=O)OCC(C[N+](C)(C)C)OC(=O)CCCCCCC/C=C\CCCCCCCC (stereo not shown) [DOTAP, 1,2-dioleoyl-3-trimethylammonium-propane]
tumor-free rate of mice [1]: 20%
PI-positive and AnnexinV-positive cells [2]: did not indicate obvious PI uptake and AnnexinV-labeled positive cells
distribution of FITC-Dextran in cytoplasm of A549 cells [3]: distributed in dots
FITC average fluorescence intensity of CD11c positive DC [4]: decreased significantly
